For assay [1], the system named is spindle assembly checkpoint. In words: SAC-Formation - Nocodazole-Induced Assay. As to conditions: Homo sapiens; HeLa cells, nocodazole 0.1 μg/ml, 24 h, phosphorylated histone H3 on serine 10. It is filed as cell-based. The procedure, abridged: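 HeLa cells were given nocodazole at 0.1 μg/ml final together with compounds (0.005–20 μM, 0.5% DMSO) for 24 h at 37° C. Mitotic cells were counted by phospho-histone H3 Ser10 immunostaining, with cell number from HOECHST 33342, by high-content imaging. The loss of mitotic cells was fitted with a four-parameter Hill equation.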

The next assay concerns HeLa. As to the kind of experiment: Proliferation assay (crystal violet), HeLa. It is filed as cell-based. To be noted: Homo sapiens, 96 h, 4 days, read-out: Inhibition of proliferation IC50 HeLa. The procedure, abridged: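 Tumour cells seeded at 1000–5000 cells/well in medium with 10% FCS, dosed after 24 h at 0.001–10 μM (0.5% DMSO final) for 4 days. Cell number read by crystal-violet staining after glutaraldehyde fixation (A595), normalised to zero-point plate (0%) and untreated cells (100%); IC50 from 4-parameter fit.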

Structures are written as SMILES.

Turning to `CCc1ccccc1NC(=O)c1c(C)nsc1Nc1ccncn1` [Example 2, N-(2-Ethylphenyl)-3-methyl-5-(pyrimidin-4-ylamino)-1,2-thiazole-4-carboxamide], the IC50 in assay [1] was 4.2 µM; in the assay on HeLa, over 10 µM.

On to `CCc1ccccc1NC(=O)c1c(C)nsc1Nc1ncccc1C(F)(F)F` [Example 3, N-(2-Ethylphenyl)-3-methyl-5-{[3-(trifluoromethyl)pyridin-2-yl]amino}-1,2-thiazole-4-carboxamide], for which the IC50 in assay [1] came out at 3 µM; with HeLa, 7.7 µM.

As to `CCc1ccccc1NC(=O)c1c(C)nsc1Nc1cc(C#N)ccn1` [Example 4, 5-[(4-Cyanopyridin-2-yl)amino]-N-(2-ethylphenyl)-3-methyl-1,2-thiazole-4-carboxamide], the IC50 in assay [1] stood at 0.73 µM; in the assay on HeLa it was 3.2 µM.

Consider `CCc1ccccc1NC(=O)c1c(C)nsc1Nc1nccc(-c2ccccc2)n1` [Example 5, N-(2-Ethylphenyl)-3-methyl-5-[(4-phenylpyrimidin-2-yl)amino]-1,2-thiazole-4-carboxamide], for which the IC50 in assay [1] was 1.2 µM; with HeLa, over 10 µM.

As for `Cc1nsc(Nc2nc3c(C(F)(F)F)ccnc3s2)c1C(=O)Nc1ccc(F)c(F)c1` [Example 58, N-(3,4-Difluorophenyl)-3-methyl-5-{[7-(trifluoromethyl)[1,3]thiazolo[5,4-b]pyridin-2-yl]amino}-1,2-thiazole-4-carboxamide], the figures for the IC50 (in assay [1]; with HeLa) were 0.28 µM and 1.5 µM, respectively.

As for `COC(=O)c1cnc(Nc2snc(C)c2C(=O)Nc2ccc(F)c(F)c2)cn1` [Example 59, Methyl 5-({4-[(3,4-difluorophenyl)carbamoyl]-3-methyl-1,2-thiazol-5-yl}amino)-pyrazine-2-carboxylate], the IC50 in assay [1] stood at 0.26 µM; in the assay with HeLa, 0.99 µM.

As to `Cc1nsc(Nc2cnc3cc(C(F)(F)F)ccc3n2)c1C(=O)Nc1ccc(F)c(F)c1` [Example 60, N-(3,4-Difluorophenyl)-3-methyl-5-{[6-(trifluoromethyl)quinoxalin-2-yl]amino}-1,2-thiazole-4-carboxamide], the IC50 is 0.04 µM in assay [1] and 0.73 µM with HeLa.

In the case of `Cc1nsc(Nc2cnc3cc(C(F)(F)F)ccc3n2)c1C(=O)Nc1ccc(Cl)c(Cl)c1` [Example 61, N-(3,4-Dichlorophenyl)-3-methyl-5-{[6-(trifluoromethyl)quinoxalin-2-yl]amino}-1,2-thiazole-4-carboxamide], the IC50 stood at 0.31 µM in assay [1] and 7.7 µM with HeLa.

Take `Cc1nsc(Nc2ccc(C#N)cn2)c1C(=O)Nc1ccc(Cl)c(Cl)c1` [Example 62, 5-[(5-Cyanopyridin-2-yl)amino]-N-(3,4-dichlorophenyl)-3-methyl-1,2-thiazole-4-carboxamide]: the IC50 in assay [1] is 0.0082 µM; with HeLa, 0.42 µM.

As for `Cc1nsc(Nc2cncc(-c3ncco3)n2)c1C(=O)Nc1ccc(Cl)c(F)c1` [Example 63, N-(4-Chloro-3-fluorophenyl)-3-methyl-5-{[6-(1,3-oxazol-2-yl)pyrazin-2-yl]amino}-1,2-thiazole-4-carboxamide], the IC50 in assay [1] worked out at 0.18 µM; in the assay with HeLa, 4.1 µM.

Turning to `Cc1nsc(Nc2cncc(-n3cccn3)n2)c1C(=O)Nc1ccc(F)c(F)c1` [Example 64, N-(3,4-Difluorophenyl)-3-methyl-5-{[6-(1H-pyrazol-1-yl)pyrazin-2-yl]amino}-1,2-thiazole-4-carboxamide], the IC50 was 0.097 µM in assay [1] and 1.6 µM in the assay on HeLa.

In the case of `Cc1nsc(Nc2cnccn2)c1C(=O)Nc1ccc(F)c(F)c1` [Example 65, N-(3,4-Difluorophenyl)-3-methyl-5-(pyrazin-2-ylamino)-1,2-thiazole-4-carboxamide], the IC50 in assay [1] came out at 0.21 µM; in the assay with HeLa, 2.8 µM.

On to `COC(=O)c1cncc(Nc2snc(C)c2C(=O)Nc2ccc(F)c(F)c2)n1` [Example 66, Methyl 6-({4-[(3,4-difluorophenyl)carbamoyl]-3-methyl-1,2-thiazol-5-yl}amino)-pyrazine-2-carboxylate], for which the IC50 was 0.037 µM in assay [1] and 2.6 µM in the assay with HeLa.

In the case of `Cc1nsc(Nc2cncc(-n3cccn3)n2)c1C(=O)Nc1ccc(Cl)c(F)c1` [Example 67, N-(4-Chloro-3-fluorophenyl)-3-methyl-5-{[6-(1H-pyrazol-1-yl)pyrazin-2-yl]amino}-1,2-thiazole-4-carboxamide], the IC50 worked out at 0.012 µM in assay [1] and 0.77 µM in the assay on HeLa.

Consider `Cc1nsc(Nc2cnc3cc(C(F)(F)F)ccc3n2)c1C(=O)Nc1ccc(Cl)c(F)c1` [Example 68, N-(4-Chloro-3-fluorophenyl)-3-methyl-5-{[6-(trifluoromethyl)quinoxalin-2-yl]amino}-1,2-thiazole-4-carboxamide], for which the IC50 in assay [1] is 0.049 µM; in the assay with HeLa, 1 µM.

`Cc1cncc(Nc2snc(C)c2C(=O)Nc2ccc(F)c(F)c2)n1` [Example 69]: the figures for the IC50 (in assay [1]; with HeLa) were 0.048 µM and 7 µM, respectively.

Take `CNC(=O)c1cncc(Nc2snc(C)c2C(=O)Nc2ccc(F)c(F)c2)n1` [Example 70, 6-({4-[(3,4-Difluorophenyl)carbamoyl]-3-methyl-1,2-thiazol-5-yl}amino)-N-methylpyrazine-2-carboxamide]: the results for the IC50 (in assay [1]; with HeLa) were 0.099 µM and 6.4 µM, respectively.

Regarding `Cc1nsc(Nc2cncc(Cl)n2)c1C(=O)Nc1ccc(F)c(F)c1` [Example 71, 5-[(6-Chloropyrazin-2-yl)amino]-N-(3,4-difluorophenyl)-3-methyl-1,2-thiazole-4-carboxamide], the values for the IC50 (in assay [1]; in the assay with HeLa) were 0.094 µM and 0.38 µM, respectively.

With `COc1cncc(Nc2snc(C)c2C(=O)Nc2ccc(F)c(F)c2)n1` [Example 72, N-(3,4-Difluorophenyl)-5-[(6-methoxypyrazin-2-yl)amino]-3-methyl-1,2-thiazole-4-carboxamide], the values for the IC50 (in assay [1]; in the assay with HeLa) were 0.35 µM and 1.7 µM, respectively.

Regarding `CCNC(=O)c1cncc(Nc2snc(C)c2C(=O)Nc2ccc(F)c(F)c2)n1` [Example 73, 6-({4-[(3,4-Difluorophenyl)carbamoyl]-3-methyl-1,2-thiazol-5-yl}amino)-N-ethylpyrazine-2-carboxamide], the IC50 came to 0.23 µM in assay [1] and 1.2 µM in the assay with HeLa.

As to `Cc1nsc(Nc2cnc(Cl)cn2)c1C(=O)Nc1ccc(F)c(F)c1` [Example 74, 5-[(5-Chloropyrazin-2-yl)amino]-N-(3,4-difluorophenyl)-3-methyl-1,2-thiazole-4-carboxamide], the IC50 in assay [1] turned out to be 0.029 µM; in the assay on HeLa it was 0.26 µM.

Consider `CNC(=O)c1cnc(Nc2snc(C)c2C(=O)Nc2ccc(F)c(F)c2)cn1` [Example 75, 5-({4-[(3,4-Difluorophenyl)carbamoyl]-3-methyl-1,2-thiazol-5-yl}amino)-N-methylpyrazine-2-carboxamide], for which the IC50 in assay [1] is 0.081 µM; in the assay on HeLa, 1.9 µM.

Regarding `CCc1cncc(Nc2snc(C)c2C(=O)Nc2ccc(F)c(F)c2)n1` [Example 76, N-(3,4-Difluorophenyl)-5-[(6-ethylpyrazin-2-yl)amino]-3-methyl-1,2-thiazole-4-carboxamide], the IC50 in assay [1] amounted to 0.052 µM; with HeLa, 2.6 µM.

As for `Cc1nsc(Nc2cnc(Br)cn2)c1C(=O)Nc1ccc(F)c(F)c1` [Example 77, 5-[(5-Bromopyrazin-2-yl)amino]-N-(3,4-difluorophenyl)-3-methyl-1,2-thiazole-4-carboxamide], the IC50 in assay [1] stood at 0.018 µM; in the assay on HeLa, 0.2 µM.

As to `CCNc1cncc(Nc2snc(C)c2C(=O)Nc2ccc(F)c(F)c2)n1` [Example 78, N-(3,4-Difluorophenyl)-5-{[6-(ethylamino)pyrazin-2-yl]amino}-3-methyl-1,2-thiazole-4-carboxamide], the IC50 in assay [1] worked out at 0.39 µM; with HeLa, 2.5 µM.

For the compound `CCc1cnc(Nc2snc(C)c2C(=O)Nc2ccc(F)c(F)c2)cn1` [Example 79, N-(3,4-Difluorophenyl)-5-[(5-ethylpyrazin-2-yl)amino]-3-methyl-1,2-thiazole-4-carboxamide], the IC50 in assay [1] was 0.14 µM; with HeLa, 0.8 µM.

With `CNC(=O)c1ccc(Nc2snc(C)c2C(=O)Nc2ccc(F)c(F)c2)nn1` [Example 80, 6-({4-[(3,4-Difluorophenyl)carbamoyl]-3-methyl-1,2-thiazol-5-yl}amino)-N-methylpyridazine-3-carboxamide], the figures for the IC50 (in assay [1]; in the assay on HeLa) were 1.9 µM and 4.4 µM, respectively.

With `Cc1nsc(Nc2cnc(C(F)(F)F)cn2)c1C(=O)Nc1ccc(F)c(F)c1` [Example 81, N-(3,4-Difluorophenyl)-3-methyl-5-{[5-(trifluoromethyl)pyrazin-2-yl]amino}-1,2-thiazole-4-carboxamide], the values for the IC50 (in assay [1]; with HeLa) were 0.0097 µM and 0.38 µM, respectively.

Consider `Cc1nsc(Nc2cncc(C(F)(F)F)n2)c1C(=O)Nc1ccc(F)c(F)c1` [Example 82, N-(3,4-Difluorophenyl)-3-methyl-5-{[6-(trifluoromethyl)pyrazin-2-yl]amino}-1,2-thiazole-4-carboxamide], for which the IC50 in assay [1] came out at 0.021 µM; in the assay on HeLa it was 0.11 µM.

Take `Cc1nsc(Nc2ccc(C(F)(F)F)nn2)c1C(=O)Nc1ccc(F)c(F)c1` [Example 83, N-(3,4-Difluorophenyl)-3-methyl-5-{[6-(trifluoromethyl)pyridazin-3-yl]amino}-1,2-thiazole-4-carboxamide]: the IC50 was 0.007 µM in assay [1] and 0.92 µM with HeLa.

For the compound `COc1ccc(NC(=O)c2c(C)nsc2Nc2cncc(C(F)(F)F)n2)cn1` [Example 84, N-(6-methoxypyridin-3-yl)-3-methyl-5-{[6-(trifluoromethyl)pyrazin-2-yl]amino}-1,2-thiazole-4-carboxamide], the figures for the IC50 (in assay [1]; in the assay with HeLa) were 0.058 µM and 0.29 µM, respectively.

The values above are taken from patent US9682995B2, “Amino-substituted isothiazoles” (BAYER PHARMA AKTIENGESELLSCHAFT, priority 2013, dated 2017).
